In ChEMBL document CHEMBL1909046, “DrugMatrix in vitro pharmacology data” one finds IC50 and Ki data, which are given here for nine compounds.

The target in one experiment is T1, Endothelin-1 receptor (Homo sapiens, UniProt P25101). Note: in other assays of this panel Not Active means under 50% inhibition at 10 µM.
T1 sequence (P25101 whole entry): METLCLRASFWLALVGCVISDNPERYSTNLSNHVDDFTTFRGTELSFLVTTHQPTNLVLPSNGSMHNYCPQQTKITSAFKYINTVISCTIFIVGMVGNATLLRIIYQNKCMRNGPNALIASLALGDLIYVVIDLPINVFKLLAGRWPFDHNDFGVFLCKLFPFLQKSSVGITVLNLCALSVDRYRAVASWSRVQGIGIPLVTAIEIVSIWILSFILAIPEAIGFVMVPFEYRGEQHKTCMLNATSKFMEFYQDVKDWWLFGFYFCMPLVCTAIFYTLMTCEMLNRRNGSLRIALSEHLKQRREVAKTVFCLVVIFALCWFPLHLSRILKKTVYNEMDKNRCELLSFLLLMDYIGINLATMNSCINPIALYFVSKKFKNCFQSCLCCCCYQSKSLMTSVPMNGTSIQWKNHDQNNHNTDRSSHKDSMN
The format is cell membranes, Membrane. The settings on record: cho-k1.

The target in another experiment is T2, Cathepsin G (Homo sapiens, UniProt P08311).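 Note: inhibition of Cathepsin G enzyme activity, tested on an AMC-conjugated peptide substrate; in other assays of this panel Not Active means under 50% inhibition at 10 µM.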
T2 sequence (P08311 whole entry): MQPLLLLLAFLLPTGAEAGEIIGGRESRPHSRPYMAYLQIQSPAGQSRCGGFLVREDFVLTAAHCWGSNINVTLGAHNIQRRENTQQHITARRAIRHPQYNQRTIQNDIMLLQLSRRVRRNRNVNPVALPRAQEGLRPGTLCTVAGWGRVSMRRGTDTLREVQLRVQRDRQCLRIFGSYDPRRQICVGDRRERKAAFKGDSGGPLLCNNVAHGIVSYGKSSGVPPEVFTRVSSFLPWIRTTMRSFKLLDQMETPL
In kind it is tissue-based. As to conditions: neutrophil.

Experiment [1] has as its target T3, Alpha-1B adrenergic receptor (Rattus norvegicus, UniProt P15823).
T3 sequence (P15823 whole entry): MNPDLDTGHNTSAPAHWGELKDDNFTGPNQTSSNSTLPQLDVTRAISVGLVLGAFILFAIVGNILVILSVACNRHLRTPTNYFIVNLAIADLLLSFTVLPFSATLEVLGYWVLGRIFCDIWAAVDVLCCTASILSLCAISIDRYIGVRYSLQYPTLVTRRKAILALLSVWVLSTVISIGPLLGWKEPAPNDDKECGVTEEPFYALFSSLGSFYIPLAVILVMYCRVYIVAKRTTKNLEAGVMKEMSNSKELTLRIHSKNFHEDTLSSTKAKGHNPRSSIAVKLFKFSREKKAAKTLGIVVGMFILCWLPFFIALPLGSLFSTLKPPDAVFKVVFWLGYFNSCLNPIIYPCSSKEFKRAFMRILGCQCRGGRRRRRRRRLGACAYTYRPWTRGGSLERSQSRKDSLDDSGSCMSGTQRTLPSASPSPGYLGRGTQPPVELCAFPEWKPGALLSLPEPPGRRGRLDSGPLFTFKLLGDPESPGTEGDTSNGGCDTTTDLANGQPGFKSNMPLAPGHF
As to the kind of experiment: DRUGMATRIX: Alpha-1B adrenergic receptor radioligand binding (ligand: prazosin). The settings on record: Not Active = under 50% inhibition at 10 µM. The format is cell membranes, Wistar, Liver, Membrane.

The target of another experiment is Nitric oxide synthase 1 (Rattus norvegicus, UniProt P29476). The format is tissue-based, Cerebellum. Note: in other assays of this panel Not Active means under 50% inhibition at 10 µM.
Nitric oxide synthase 1, sequence (P29476 whole entry): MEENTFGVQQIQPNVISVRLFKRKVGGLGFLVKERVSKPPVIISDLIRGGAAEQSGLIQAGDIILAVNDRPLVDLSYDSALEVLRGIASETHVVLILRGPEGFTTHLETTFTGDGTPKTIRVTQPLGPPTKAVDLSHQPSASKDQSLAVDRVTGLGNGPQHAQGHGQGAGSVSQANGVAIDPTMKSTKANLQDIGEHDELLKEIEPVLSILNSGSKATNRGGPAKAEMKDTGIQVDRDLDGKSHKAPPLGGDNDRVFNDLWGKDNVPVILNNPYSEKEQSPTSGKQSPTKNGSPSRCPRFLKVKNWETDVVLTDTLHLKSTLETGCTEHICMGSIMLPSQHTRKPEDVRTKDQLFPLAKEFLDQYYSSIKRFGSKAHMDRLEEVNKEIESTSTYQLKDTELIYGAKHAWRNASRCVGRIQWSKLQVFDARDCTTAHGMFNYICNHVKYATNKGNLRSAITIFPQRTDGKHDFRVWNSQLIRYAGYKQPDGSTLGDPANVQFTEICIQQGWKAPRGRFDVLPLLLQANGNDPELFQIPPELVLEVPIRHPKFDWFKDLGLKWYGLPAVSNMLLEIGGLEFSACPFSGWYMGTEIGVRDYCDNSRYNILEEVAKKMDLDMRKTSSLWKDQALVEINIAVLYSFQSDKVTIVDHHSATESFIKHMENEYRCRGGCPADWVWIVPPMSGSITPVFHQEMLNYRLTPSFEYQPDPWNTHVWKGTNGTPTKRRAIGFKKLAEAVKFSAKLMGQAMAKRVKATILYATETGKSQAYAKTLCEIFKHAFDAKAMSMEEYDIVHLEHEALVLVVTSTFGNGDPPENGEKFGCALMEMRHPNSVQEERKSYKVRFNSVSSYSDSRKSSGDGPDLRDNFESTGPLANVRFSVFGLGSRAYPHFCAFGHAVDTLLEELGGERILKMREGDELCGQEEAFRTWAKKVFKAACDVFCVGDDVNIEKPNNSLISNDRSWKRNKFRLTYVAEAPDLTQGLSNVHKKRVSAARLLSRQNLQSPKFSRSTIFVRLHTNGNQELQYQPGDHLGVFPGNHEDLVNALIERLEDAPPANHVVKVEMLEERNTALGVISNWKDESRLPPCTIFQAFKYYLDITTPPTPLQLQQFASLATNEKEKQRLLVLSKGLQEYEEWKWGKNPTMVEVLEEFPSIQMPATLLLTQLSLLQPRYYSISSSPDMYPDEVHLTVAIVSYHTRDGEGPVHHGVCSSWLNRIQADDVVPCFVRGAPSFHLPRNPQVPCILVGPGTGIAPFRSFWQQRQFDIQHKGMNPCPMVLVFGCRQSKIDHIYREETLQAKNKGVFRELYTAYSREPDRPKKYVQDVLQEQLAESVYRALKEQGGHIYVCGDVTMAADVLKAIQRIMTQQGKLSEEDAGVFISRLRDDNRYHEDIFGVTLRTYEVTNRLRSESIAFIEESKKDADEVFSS
Experiment [2] concerns the target T4, Vasoactive intestinal polypeptide receptor 1 (Homo sapiens, UniProt P32241). Note: in other assays of this panel Not Active means under 50% inhibition at 10 µM.
T4 sequence (P32241 whole entry): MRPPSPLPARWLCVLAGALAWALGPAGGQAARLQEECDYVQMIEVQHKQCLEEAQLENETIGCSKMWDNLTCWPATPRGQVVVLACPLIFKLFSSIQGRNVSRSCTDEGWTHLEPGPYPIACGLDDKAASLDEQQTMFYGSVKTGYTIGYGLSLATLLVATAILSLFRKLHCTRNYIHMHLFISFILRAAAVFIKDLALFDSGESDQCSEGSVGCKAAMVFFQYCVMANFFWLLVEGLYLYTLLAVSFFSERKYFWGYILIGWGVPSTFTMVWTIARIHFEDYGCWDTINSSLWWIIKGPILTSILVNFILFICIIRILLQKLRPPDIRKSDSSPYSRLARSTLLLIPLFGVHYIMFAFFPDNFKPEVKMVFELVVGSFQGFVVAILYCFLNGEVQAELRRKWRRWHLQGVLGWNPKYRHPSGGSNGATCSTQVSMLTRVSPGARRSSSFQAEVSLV
The format is cell membranes, Membrane. As to conditions: ht-29.

Experiment [3] concerns the target Mitogen-activated protein kinase 3 (Homo sapiens, UniProt P27361). As to the kind of experiment: DRUGMATRIX: Protein Serine/Threonine Kinase, ERK1 enzyme inhibition (substrate: Myelin Basic Protein). Further details: species or system Escherichia coli. The settings on record: Not Active = under 50% inhibition at 10 µM.
A further experiment concerns the target T5, Interstitial collagenase (Homo sapiens, UniProt P03956).
T5 sequence (P03956 whole entry): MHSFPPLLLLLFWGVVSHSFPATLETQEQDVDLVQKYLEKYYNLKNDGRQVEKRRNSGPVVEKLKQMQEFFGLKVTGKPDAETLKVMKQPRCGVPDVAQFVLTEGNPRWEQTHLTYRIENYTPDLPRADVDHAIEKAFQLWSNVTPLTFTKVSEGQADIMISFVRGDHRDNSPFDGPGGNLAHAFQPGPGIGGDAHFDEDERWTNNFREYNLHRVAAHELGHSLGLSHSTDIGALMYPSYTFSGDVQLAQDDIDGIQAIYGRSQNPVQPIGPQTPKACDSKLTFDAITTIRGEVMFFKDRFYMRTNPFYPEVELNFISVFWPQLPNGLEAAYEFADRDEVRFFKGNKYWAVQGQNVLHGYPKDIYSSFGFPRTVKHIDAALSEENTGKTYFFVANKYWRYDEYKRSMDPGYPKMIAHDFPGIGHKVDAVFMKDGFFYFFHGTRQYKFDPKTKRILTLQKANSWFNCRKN
In kind it is tissue-based, Rheumatoid synovial fibroblasts.

Another experiment has as its target Melanocortin receptor 3 (Homo sapiens, UniProt P41968). In kind it is cell membranes, Membrane. The settings on record: hek293. Note: in other assays of this panel Not Active means under 50% inhibition at 10 µM.
For experiment [4], the target named is Aldo-keto reductase family 1 member B1 (Rattus norvegicus, UniProt P07943). The format is tissue-based, Lens of camera-type eye.
Experiment [5] has as its target T6, Neuropeptide Y receptor type 1 (Homo sapiens, UniProt P25929). Note: in other assays of this panel Not Active means under 50% inhibition at 10 µM.
T6 sequence (P25929 whole entry): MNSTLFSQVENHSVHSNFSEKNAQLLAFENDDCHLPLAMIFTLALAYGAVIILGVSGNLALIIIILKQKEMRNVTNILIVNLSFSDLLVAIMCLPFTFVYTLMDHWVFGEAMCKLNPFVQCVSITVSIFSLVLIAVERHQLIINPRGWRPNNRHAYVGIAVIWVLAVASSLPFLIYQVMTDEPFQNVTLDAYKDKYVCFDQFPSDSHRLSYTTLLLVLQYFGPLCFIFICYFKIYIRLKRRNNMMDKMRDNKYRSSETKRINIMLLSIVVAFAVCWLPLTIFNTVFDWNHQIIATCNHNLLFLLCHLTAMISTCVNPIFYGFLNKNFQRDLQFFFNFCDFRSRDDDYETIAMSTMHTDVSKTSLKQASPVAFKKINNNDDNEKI
The format is cell membranes, Membrane. As to conditions: sk-n-mc.

Melanocortin receptor 3, sequence (P41968 whole entry): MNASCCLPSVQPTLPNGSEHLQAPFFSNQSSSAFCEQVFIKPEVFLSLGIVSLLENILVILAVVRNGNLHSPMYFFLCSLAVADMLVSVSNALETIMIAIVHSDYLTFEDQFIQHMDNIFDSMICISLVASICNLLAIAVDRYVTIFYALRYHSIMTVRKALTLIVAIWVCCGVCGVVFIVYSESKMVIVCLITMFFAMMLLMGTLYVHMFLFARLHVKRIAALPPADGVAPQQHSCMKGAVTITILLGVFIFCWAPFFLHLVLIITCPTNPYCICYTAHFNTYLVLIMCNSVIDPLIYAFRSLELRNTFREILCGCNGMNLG
Mitogen-activated protein kinase 3, sequence (P27361 whole entry): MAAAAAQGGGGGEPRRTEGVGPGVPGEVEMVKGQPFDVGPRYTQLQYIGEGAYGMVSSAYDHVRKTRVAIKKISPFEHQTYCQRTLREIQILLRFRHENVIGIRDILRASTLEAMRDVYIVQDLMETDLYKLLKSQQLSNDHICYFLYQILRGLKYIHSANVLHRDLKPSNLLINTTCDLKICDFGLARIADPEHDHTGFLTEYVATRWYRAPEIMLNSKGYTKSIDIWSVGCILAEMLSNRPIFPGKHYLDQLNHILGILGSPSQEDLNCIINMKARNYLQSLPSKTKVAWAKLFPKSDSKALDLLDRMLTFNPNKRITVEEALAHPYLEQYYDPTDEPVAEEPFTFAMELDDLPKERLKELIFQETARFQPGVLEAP

One may read the IC50 as the midpoint of a concentration-inhibition curve. Turning to `CC[C@@]1(O)C(=O)OCc2c1cc1n(c2=O)Cc2cc3ccccc3nc2-1` [CAMPTOTHECIN], the IC50 entry (against Endothelin-1 receptor; at Cathepsin G; in experiment [1]; at Nitric oxide synthase 1; in [2]; in [3]) was “Not Active” in each case. Moreover, the IC50 result (against Interstitial collagenase; against Melanocortin receptor 3; in [4]; in experiment [5]) was “Not Active” throughout.

Turning to `COCc1c(C(C)C)nc(C(C)C)c(/C=C/[C@@H](O)C[C@@H](O)CC(=O)O)c1-c1ccc(F)cc1` [CERIVASTATIN], the 50% inhibitory concentration (IC50) result (against Endothelin-1 receptor; against Cathepsin G; in experiment [1]; against Nitric oxide synthase 1; in experiment [2]; in [3]) was “Not Active” throughout. Also, the IC50 result (against Interstitial collagenase; at Melanocortin receptor 3; in experiment [4]; in [5]) was “Not Active” each time.

With `CC(=O)O[C@]1(C(C)=O)CC[C@H]2[C@@H]3C=C(Cl)C4=CC(=O)CC[C@]4(C)[C@H]3CC[C@@]21C` [CHLORMADINONE ACETATE], the IC50 result (at Endothelin-1 receptor; against Cathepsin G; in experiment [1]; at Nitric oxide synthase 1; in [2]; in experiment [3]) was “Not Active” throughout. Further, the IC50 result (at Interstitial collagenase; against Melanocortin receptor 3; in experiment [4]; in experiment [5]) was “Not Active” each time.

Turning to `O=C1CCc2cc(OCCCCc3nnnn3C3CCCCC3)ccc2N1` [CILOSTAZOL], the IC50 entry (against Endothelin-1 receptor; on Cathepsin G; in [1]; at Nitric oxide synthase 1; in [2]; in experiment [3]) was “Not Active” throughout. Besides, the 50% inhibitory concentration (IC50) entry (against Interstitial collagenase; on Melanocortin receptor 3; in experiment [4]; in experiment [5]) was “Not Active” in each case.

For `O=C(O)c1cn(C2CC2)c2cc(N3CCNCC3)c(F)cc2c1=O` [CIPROFLOXACIN], the IC50 result (against Endothelin-1 receptor; at Cathepsin G; in experiment [1]; against Nitric oxide synthase 1; in experiment [2]; in experiment [3]) was “Not Active” in each case. The IC50 entry (against Interstitial collagenase; at Melanocortin receptor 3; in experiment [4]; in experiment [5]) was “Not Active” throughout.

The term Ki denotes the equilibrium dissociation constant of an inhibitor or competing ligand from its target. Consider `CN(C)CCCC1(c2ccc(F)cc2)OCc2cc(C#N)ccc21` (stereo unspecified) [CITALOPRAM], for which the IC50 entry was “Not Active” against Endothelin-1 receptor; “Not Active” against Cathepsin G; 3290 nM in [1] (read-out: IC50); “Not Active” against Nitric oxide synthase 1; “Not Active” in experiment [2]; “Not Active” in experiment [3]. Moreover, the IC50 result (on Interstitial collagenase; against Melanocortin receptor 3; in experiment [4]; in experiment [5]) was “Not Active” in each case. Besides, the Ki in experiment [1] (read-out: Ki) is 1820 nM.

For `COC(=O)[C@H](c1ccccc1Cl)N1CCc2sccc2C1` [CLOPIDOGREL], the concentration for half-maximal inhibition (IC50) entry (at Endothelin-1 receptor; at Cathepsin G; in experiment [1]; at Nitric oxide synthase 1; in experiment [2]; in experiment [3]) was “Not Active” throughout. For the same compound, the IC50 entry (against Interstitial collagenase; at Melanocortin receptor 3; in experiment [4]; in [5]) was “Not Active” in each case.

On to `C[C@]12CCC(=O)C=C1CC[C@@H]1[C@@H]2C(=O)C[C@@]2(C)[C@H]1CC[C@]2(O)C(=O)CO` [CORTISONE], for which the 50% inhibitory concentration (IC50) entry (on Endothelin-1 receptor; against Cathepsin G; in experiment [1]; on Nitric oxide synthase 1; in [2]; in experiment [3]) was “Not Active” throughout. Moreover, the concentration for half-maximal inhibition (IC50) entry (at Interstitial collagenase; on Melanocortin receptor 3; in [4]; in experiment [5]) was “Not Active” throughout.

Consider `CC1=Nc2ccc(Cl)cc2S(=O)(=O)N1` [DIAZOXIDE], for which the IC50 result (at Endothelin-1 receptor; at Cathepsin G; in experiment [1]; at Nitric oxide synthase 1; in [2]; in [3]) was “Not Active” in each case. Besides, the IC50 result (at Interstitial collagenase; against Melanocortin receptor 3; in experiment [4]; in experiment [5]) was “Not Active” throughout.
